Data as given in patent publication US10314820B2, “Imidazole-based heterocyclic compounds” (priority 2014, dated 2019).
Converted amounts (≈) assume the structure as drawn.

Columns and labels:
[1] = system: linezolid-resistant Staphylococcus aureus (from MRSA, COL); assay: microbe, parasite or virus in culture; format: cell-based; conditions: for antibacterial activity MRSA strains with additional resistance to L: Table BB, MIC score, linezolid-resistant MRSA
[2] = system: Enterococcus faecium (AGR15, ATCCBAA-2127); assay: Broth microdilution MIC assay, Enterococcus faecium; format: cell-based; conditions: Table BB; MIC score
[3] = system: Human hepatocytes (HepaRG cells); assay: Human cytotoxicity assay in vitro (CellTiter-Glo), hepatocytes; format: cell-based; conditions: hepatocyte cytotoxicity score; 24 h exposure
[4] = system: Human keratinocytes (HaCaT cells); assay: Human cytotoxicity assay in vitro (CellTiter-Glo), keratinocytes; format: cell-based; conditions: keratinocyte cytotoxicity score; 24 h exposure
[5] = system: moenomycin-resistant Staphylococcus aureus (from MRSA, COL); conditions: Table BB, MIC score
[6] = system: vancomycin-resistant Staphylococcus aureus (from MRSA, COL); assay: microbe, parasite or virus in culture; format: cell-based; conditions: for antibacterial activity MRSA strains with additional resistance to V: Table BB, MIC score, vancomycin-resistant MRSA
[7] = system: Escherichia coli TolC mutant strain ΔtolC; format: cell-based; conditions: Table BB; MIC score
[8] = system: Streptococcus pneumoniae (Chester, ATCC49619); assay: Broth microdilution MIC assay, Streptococcus pneumoniae; format: cell-based; conditions: Table AA; MIC score
[9] = system: Staphylococcus aureus MRSA (COL); format: cell-based; conditions: Table AA; MIC score
[10] = system: Staphylococcus aureus MSSA (Newman); assay: Broth microdilution MIC assay, MSSA; format: cell-based; conditions: Table AA; MIC score
[11] = Staphylococcus aureus, MRSA, read-out: MIC for the resistant strain

Row | SMILES | cytotoxicity cell line H [3] | cytotoxicity cell line K [4] | also measured
1 | CC(=O)NC[C@H]1CN(c2ccc(N3CCOCC3)c(F)c2)C(=O)O1 [linezolid, reference compound] |  |  | MIC [1, 11]: 7.5 µg/mL (≈ 22.2 µM)
2 | Cc1[nH]c(-c2ccc(-c3ccccc3OC(F)(F)F)o2)nc1-c1ccc(F)cc1 [Compound 23, 4-(4-Fluoro-phenyl)-5-methyl-2-[5-(2-trifluoromethoxy-phenyl)-furan-2-yl]-1H-imidazole] | 3 | 2 (compounds causing>50% inhibition of cell viability at 25 μM) | antibacterial activity EFm [2]: 1 (the compound has an MIC100 of 20-50 μg/ml or an MIC50 of <10 μg/ml)
3 | Cc1nc(-c2ccc(-c3ccc(Cl)c(OC(F)(F)F)c3)o2)[nH]c1-c1ccc(Cl)cc1 [Compound 44] | 2 |  | antibacterial activity EFm [2]: 1 (the compound has an MIC100 of 20-50 μg/ml or an MIC50 of <10 μg/ml)
4 | Cc1ccccc1-c1c[nH]c(-c2ccc(-c3ccccc3OC(F)(F)F)o2)n1 [Compound 66] | 3 | 1 (compounds causing less than 50% inhibition of cell viability at 50 μM) | antibacterial activity MRSA strains with additional resistance to M [5]: 3 (the compound has an MIC100 of 3-10 μg/ml); antibacterial activity MRSA strains with additional resistance to V [6]: 3 (the compound has an MIC100 of 3-10 μg/ml); antibacterial activity MRSA strains with additional resistance to L [1]: 4 (the compound has an MIC of 1 μg/ml to 3 μg/ml for preventing bacterial growth 100% (MIC100))
5 | Cc1ccccc1-c1cnc(-c2ccc(-c3ccccc3C(F)(F)F)o2)[nH]1 [Compound 69] | 2 | 1 (compounds causing less than 50% inhibition of cell viability at 50 μM) | antibacterial activity EC Δ [7]: 1 (the compound has an MIC100 of 20-50 μg/ml or an MIC50 of <10 μg/ml)
6 | CN[C@H](CC(C)C)C(=O)N[C@H]1C(=O)N[C@@H](CC(N)=O)C(=O)N[C@H]2C(=O)N[C@H]3C(=O)N[C@H](C(=O)N[C@H](C(=O)O)c4cc(O)cc(O)c4-c4cc3ccc4O)[C@H](O)c3ccc(c(Cl)c3)Oc3cc2cc(c3O[C@@H]2O[C@H](CO)[C@@H](O)[C@H](O)[C@H]2O[C@H]2C[C@](C)(N)[C@H](O)[C@H](C)O2)Oc2ccc(cc2Cl)[C@H]1O [vancomycin, Vancomycin, reference compound] |  |  | MIC [6, 11]: 20 µg/mL (≈ 13.8 µM)
7 | Cc1[nH]c(-c2ccc(-c3ccccc3OC(F)(F)F)o2)nc1-c1ccc(Cl)cc1 [Compound 24] | 2 | 2 (compounds causing>50% inhibition of cell viability at 25 μM) | antibacterial activity MRSA strains with additional resistance to M [5]: 3 (the compound has an MIC100 of 3-10 μg/ml); antibacterial activity MRSA strains with additional resistance to V [6]: 4 (the compound has an MIC of 1 μg/ml to 3 μg/ml for preventing bacterial growth 100% (MIC100)); antibacterial activity MRSA strains with additional resistance to L [1]: 3 (the compound has an MIC100 of 3-10 μg/ml)
8 | Fc1ccc(-c2ccc(-c3nc4ccccc4[nH]3)o2)cc1 [Compound 121] |  |  | Antibacterial activity Streptococcus pneumoniae [8]: inactive; Antibacterial activity Staphylococcus aureus (MRSA) [9]: inactive
9 | Cc1nc(-c2ccc(-c3ccccc3OC(F)(F)F)o2)[nH]c1-c1ccccc1Cl [Compound 19] | 3 | 0 (compounds not causing loss of cell viability at concentrations of 50 μM or higher) | antibacterial activity MRSA strains with additional resistance to V [6]: 1 (the compound has an MIC100 of 20-50 μg/ml or an MIC50 of <10 μg/ml); antibacterial activity MRSA strains with additional resistance to L [1]: 3 (the compound has an MIC100 of 3-10 μg/ml)
10 | Cc1[nH]c(-c2ccc(-c3ccc(Cl)c(C(F)(F)F)c3)o2)nc1-c1ccc(F)cc1 [Compound 42] | 1 (compounds not causing a loss of viability at concentrations between 25 and 50 μM) | 3 (compounds causing more than 50% inhibition of cell viability at 10 μM) | antibacterial activity EFm [2]: 1 (the compound has an MIC100 of 20-50 μg/ml or an MIC50 of <10 μg/ml); antibacterial activity MRSA strains with additional resistance to M [5]: 4 (the compound has an MIC of 1 μg/ml to 3 μg/ml for preventing bacterial growth 100% (MIC100)); antibacterial activity MRSA strains with additional resistance to V [6]: 4 (the compound has an MIC of 1 μg/ml to 3 μg/ml for preventing bacterial growth 100% (MIC100)); antibacterial activity MRSA strains with additional resistance to L [1]: 4 (the compound has an MIC of 1 μg/ml to 3 μg/ml for preventing bacterial growth 100% (MIC100))
11 | Cc1[nH]c(-c2ccc(-c3ccc(C(F)(F)F)cc3)o2)nc1-c1ccc(Cl)cc1 [Compound 47] | 1 (compounds not causing a loss of viability at concentrations between 25 and 50 μM) | 2 (compounds causing>50% inhibition of cell viability at 25 μM) | antibacterial activity EFm [2]: 1 (the compound has an MIC100 of 20-50 μg/ml or an MIC50 of <10 μg/ml)
12 | Cc1[nH]c(-c2ccc(-c3ccc(OC(F)(F)F)c(Cl)c3)o2)nc1-c1ccc(Cl)cc1 [Compound 50] | 1 (compounds not causing a loss of viability at concentrations between 25 and 50 μM) | 1 (compounds causing less than 50% inhibition of cell viability at 50 μM) | Antibacterial activity Staphylococcus aureus (MSSA) [10]: 3 (the compound has an MIC100 of 3-10 μg/ml); Antibacterial activity Streptococcus pneumoniae [8]: 3 (the compound has an MIC100 of 2-5 μg/ml); Antibacterial activity Staphylococcus aureus (MRSA) [9]: 2 (the compound has an MIC100 of 11-20 μg/ml)
13 | Cc1[nH]c(-c2ccc(-c3ccccc3F)s2)nc1-c1ccccc1 [Compound 15] | 1 (compounds not causing a loss of viability at concentrations between 25 and 50 μM) | 1 (compounds causing less than 50% inhibition of cell viability at 50 μM) | antibacterial activity EC Δ [7]: 1 (the compound has an MIC100 of 20-50 μg/ml or an MIC50 of <10 μg/ml)
14 | Cc1[nH]c(-c2ccc(-c3cccc(Br)c3)s2)nc1-c1ccccc1 [Compound 13] | 1 (compounds not causing a loss of viability at concentrations between 25 and 50 μM) | 1 (compounds causing less than 50% inhibition of cell viability at 50 μM) | 
15 | Cc1[nH]c(-c2ccc(-c3ccc(OC(F)(F)F)cc3)o2)nc1-c1ccc(Cl)cc1 [Compound 48] | 2 | 1 (compounds causing less than 50% inhibition of cell viability at 50 μM) | 
16 | Cc1ccc(-c2nc(-c3nc(-c4ccccc4)c(C)[nH]3)co2)cc1 [Compound 57] | 1 (compounds not causing a loss of viability at concentrations between 25 and 50 μM) | 3 (compounds causing more than 50% inhibition of cell viability at 10 μM) | 
17 | Cc1[nH]c(-c2ccc(-c3cccc(Cl)c3)s2)nc1-c1ccccc1 [Compound 12] | 1 (compounds not causing a loss of viability at concentrations between 25 and 50 μM) | 2 (compounds causing>50% inhibition of cell viability at 25 μM) | 
18 | Cc1[nH]c(-c2ccc(-c3ccccc3C(F)(F)F)o2)nc1-c1ccc(Br)cc1 [Compound 25] | 0 (compounds without signs of cell viability loss at concentrations of 50 μM or higher) | 0 (compounds not causing loss of cell viability at concentrations of 50 μM or higher) | 
19 | FC(F)(F)Oc1ccccc1-c1ccc(-c2nc(Cl)c(-c3ccccc3)[nH]2)o1 [Compound 64] | 3 | 3 (compounds causing more than 50% inhibition of cell viability at 10 μM) | antibacterial activity MRSA strains with additional resistance to M [5]: 4 (the compound has an MIC of 1 μg/ml to 3 μg/ml for preventing bacterial growth 100% (MIC100)); antibacterial activity MRSA strains with additional resistance to V [6]: 4 (the compound has an MIC of 1 μg/ml to 3 μg/ml for preventing bacterial growth 100% (MIC100))
20 | Cc1[nH]c(-c2ccc(-c3ccc(C(F)(F)F)c(Cl)c3)o2)nc1-c1ccc(F)cc1 [Compound 49] | 3 | 2 (compounds causing>50% inhibition of cell viability at 25 μM) | antibacterial activity EFm [2]: 1 (the compound has an MIC100 of 20-50 μg/ml or an MIC50 of <10 μg/ml); antibacterial activity MRSA strains with additional resistance to M [5]: 3 (the compound has an MIC100 of 3-10 μg/ml); antibacterial activity MRSA strains with additional resistance to V [6]: 3 (the compound has an MIC100 of 3-10 μg/ml); antibacterial activity MRSA strains with additional resistance to L [1]: 2 (the compound has an MIC100 of 11-20 μg/ml)
21 | Cc1nc(-c2ccc(-c3ccc(Cl)cc3Cl)o2)[nH]c1-c1ccc(F)cc1 [Compound 16] | 3 | 1 (compounds causing less than 50% inhibition of cell viability at 50 μM) | 
22 | Cc1[nH]c(-c2cc(C)n(-c3ccc(F)cc3F)c2C)nc1-c1ccccc1 [Compound 9] | 3 | 2 (compounds causing>50% inhibition of cell viability at 25 μM) | 
23 | FC(F)(F)Oc1ccccc1-c1ccc(-c2nc(-c3ccccc3Cl)c[nH]2)o1 [Compound 67] | 2 | 2 (compounds causing>50% inhibition of cell viability at 25 μM) | 
24 | Fc1ccc(-c2ccc(-c3nc4ccccc4[nH]3)o2)c(F)c1 [Compound 122] |  |  | Antibacterial activity Streptococcus pneumoniae [8]: inactive; Antibacterial activity Staphylococcus aureus (MRSA) [9]: inactive
